Where “and” joins values, the source holds several entries; their conditions need not be identical. Identical values can stand only once.
System: 857933-349-R-J2-PDC complex spheroid viability
Experiment: Anticancer human tumor 857933-349-R-J2-PDC patient-derived colon adenocarcinoma cell line growth inhibition [POLQ]
Details: for viability, T/C: stronger effect = lower value
Protocol: Multicellular complex tumor spheroid response to Polymerase (POL) inhibitors (novobiocin, ART-558, RP6685) in combination with a variety of drugs and investigational agents in selected tumor cell lines
The POL inhibitors (novobiocin, ART-558, and RP6685) were evaluated both individually and in combination with standard of care and investigational anticancer small molecules within a complex spheroid model of solid tumors. . Complex spheroids include a stromal component modeled by human endothelial cells (HUVEC) and fibroblasts modeled by human mesenchymal stem cells (MSCs). The concentration ranges selected for each drug and investigational agent were based upon clinically achievable concentrations if the clinical Cmax of the agent was known.
Compounds. The drugs and investigational agents: novobiocin (NSC847541), ART-558 (NSC835418), RP-6685 (NSC848927), peposertib (NSC802822), ceralasertib (NSC780249), elimusertib (NSC800525), camonsertib (NSC841442), AZD-1390 (NSC803789), olaparib (NSC753686), talazoparib (NSC767125), rucaparib (NSC756644), sotorasib (NSC818433), MRTX-1133 (NSC836407), SN-38 (NSC673596), topotecan (NSC609699), epotoside (NSC141540), doxorubicin (NSC123127), gemcitabine (NSC613327), 5-fluorouracil (NSC19893), paclitaxel (NSC125973), vemurafenib (NSC761431), MSA-2 (NSC828583), SN-011 (NSC837082), adavosertib (NSC754352), prexasertib (NSC758257), carboplatin (NSC241240) and oxaliplatin (NSC266046), were obtained from the National Cancer Institute (NCI) Developmental Therapeutics Program Chemical Repository (21). The FDA-approved anticancer drug set is available from the Developmental Therapeutics Program at https://dtp.cancer.gov/organization/dscb/obtaining/. […] The stock solutions were prepared in dimethyl sulfoxide (DMSO, Sigma-Aldrich, St. Louis, MO, cat. D2650), except for the platinum compounds which were prepared in saline (Quality Biological, Gaithersburg, MD, cat. 114-055-101), at 800-fold the tested concentration and stored at -70 degrees C prior to their use. All drugs and investigational agents were tested over a range starting from a high concentration at or near the clinical Cmax and decreasing in half-log increments. If the clinical Cmax for an agent had not been determined, the highest concentration tested was 10 microM, except for SN-38, which was tested at a high concentration of 1 microM.
Cell Culture. All cells were maintained in an incubator at 37 degrees C and 5% CO2 with 95% humidity. The PDC lines were cultured according to standard operating procedures established by the NCI PDMR (https://pdmr.cancer.gov). Table 3 of the manuscript, lists the cell lines along with the number of the three cell types plated to form the mct-spheroids and media for tumor cell growth. After thawing, all PDC lines, except 997537-175-T-J1-PDC and 415267-285-R-J2-PDC, were cultured in Matrigel-coated flasks prepared with a working solution of 1X Ham's F-12 nutrient mix, without supplementation (Thermo Fisher Scientific, cat. 11765054), 100 U/mL penicillin-streptomycin (Thermo Fisher Scientific, cat. 15140122), and 2.5% Matrigel (Corning Inc., Corning, NY, cat. 354248) for the first three passages. The two PDC lines 997537-175-T-J1-PDC and 415267-285-R-J2-PDC were cultured on uncoated flasks. The 857933-349-R-J2-PDC line was cultured in 6C/Colon 1B media containing advanced DMEM/F-12 (Thermo Fisher Scientific, cat. 12634028), 10 mM HEPES (Thermo Fisher Scientific, cat. 15630080), 1X GlutaMAX supplement (Thermo Fisher Scientific, cat. 35050061), 0.1 mg/mL primocin (InvivoGen, San Diego, CA, cat. ant-pm-2), 10% defined fetal bovine serum, heat inactivated (HyClone Laboratories Inc., Logan, UT, cat. SH30070.03HI), 50% L-WRN conditioned media (ATCC, cat. CRL-3276), 1.25 mM N-Acetyl-L-cysteine (Sigma-Aldrich, cat. A9165), 10 mM nicotinamide (Sigma-Aldrich, cat. N0636), 1X B-27 supplement (Thermo Fisher Scientific, cat. 17504044), 1X N-2 supplement (Thermo Fisher Scientific, cat. […]

[1] = curve of first compound, second compound 0.0316 µM
[2] = curve of first compound, second compound 0.1 µM
[3] = curve of first compound, second compound 0.316 µM
[4] = curve of first compound, second compound 1 µM
[5] = curve of first compound, second compound 3.16 µM
[6] = curve of first compound, second compound 10 µM
[7] = second compound 0.0316 µM, first compound 0.0316 µM
[8] = second compound 0.0316 µM, first compound 0.1 µM
[9] = second compound 0.0316 µM, first compound 0.316 µM
[10] = second compound 0.0316 µM, first compound 1 µM
[11] = second compound 0.1 µM, first compound 0.0316 µM
[12] = second compound 0.1 µM, first compound 0.1 µM
[13] = second compound 0.1 µM, first compound 0.316 µM
[14] = second compound 0.1 µM, first compound 1 µM
[15] = second compound 0.316 µM, first compound 0.0316 µM
[16] = second compound 0.316 µM, first compound 0.1 µM
[17] = second compound 0.316 µM, first compound 0.316 µM
[18] = second compound 0.316 µM, first compound 1 µM
[19] = second compound 1 µM, first compound 0.0316 µM
[20] = second compound 1 µM, first compound 0.1 µM
[21] = second compound 1 µM, first compound 0.316 µM
[22] = second compound 1 µM, first compound 1 µM
[23] = second compound 3.16 µM, first compound 0.0316 µM
[24] = second compound 3.16 µM, first compound 0.1 µM
[25] = second compound 3.16 µM, first compound 0.316 µM
[26] = second compound 3.16 µM, first compound 1 µM
[27] = second compound 10 µM, first compound 0.0316 µM
[28] = second compound 10 µM, first compound 0.1 µM
[29] = second compound 10 µM, first compound 0.316 µM
[30] = second compound 10 µM, first compound 1 µM
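Note: spheroids exposed to compounds for seven days before readout.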

`CCc1c2c(nc3ccc(O)cc13)-c1cc3c(c(=O)n1C2)COC(=O)[C@]3(O)CC` + Cc1cccc(N(C)C(=O)C2C(O)CCN2c2nc(C)cc(C(F)(F)F)c2C#N)c1 was tested, and the IC50 [1] was 21.5 nM, the IC50 [2] was 16.7 nM and the IC50 [3] was 14 nM. The IC50 [4] was 15.6 nM, the IC50 [5] was 13.4 nM and the IC50 [6] was 13.6 nM. For the same compound, the viability, T/C (second compound 0.0316 µM, first compound 0.00316 µM) was 75%, the viability, T/C (second compound 0.0316 µM, first compound 0.01 µM) was 78.5% and the viability, T/C [7] was 36.5%. It also gave a viability, T/C [8] of 20%, a viability, T/C [9] of 16.1% and a viability, T/C [10] of 5.22%. It also gave a viability, T/C (second compound 0.1 µM, first compound 0.00316 µM) of 70.1%, a viability, T/C (second compound 0.1 µM, first compound 0.01 µM) of 68.6% and a viability, T/C [11] of 27.4%. The viability, T/C [12] was 17.7%, the viability, T/C [13] was 13.2% and the viability, T/C [14] was 3.51%. For the same compound, the viability, T/C (second compound 0.316 µM, first compound 0.00316 µM) was 67%, the viability, T/C (second compound 0.316 µM, first compound 0.01 µM) was 59.5% and the viability, T/C [15] was 32%. For the same compound, the viability, T/C [16] was 20.2%, the viability, T/C [17] was 15% and the viability, T/C [18] was 4.16%. The viability, T/C (second compound 1 µM, first compound 0.00316 µM) was 73.9%, the viability, T/C (second compound 1 µM, first compound 0.01 µM) was 62.5% and the viability, T/C [19] was 30.8%. It also gave a viability, T/C [20] of 19.8%, a viability, T/C [21] of 14.1% and a viability, T/C [22] of 5.21%. It also gave a viability, T/C (second compound 3.16 µM, first compound 0.00316 µM) of 72.9%, a viability, T/C (second compound 3.16 µM, first compound 0.01 µM) of 59.6% and a viability, T/C [23] of 23.5%. It also gave a viability, T/C [24] of 19.1%, a viability, T/C [25] of 12.3% and a viability, T/C [26] of 4.25%. It also gave a viability, T/C (second compound 10 µM, first compound 0.00316 µM) of 65.1%, a viability, T/C (second compound 10 µM, first compound 0.01 µM) of 60.2% and a viability, T/C [27] of 22.4%. For the same compound, the viability, T/C [28] was 17.7%, the viability, T/C [29] was 17.1% and the viability, T/C [30] was 2.64%.

In the case of `CC1COCCN1c1cc(C2(O)CC3CCC(C2)O3)c2cnn(-c3ccn[nH]3)c2n1` (stereo not given), the viability, T/C (compound 0.0316 µM) is reported as 62.7% and 58.8% and 79.7%, the viability, T/C (compound 0.1 µM) is reported as 51.6% and 50.3% and 63.5% and the viability, T/C (compound 0.316 µM) is reported as 52.9% and 47% and 57.7%. For the same compound, the viability, T/C (compound 1 µM) was 44.2% and 42.2% and 45.6%, the viability, T/C (compound 3.16 µM) was 39.6% and 45.2% and 46.2% and the viability, T/C (compound 10 µM) was 45.9% and 49.6% and 45.8%. For the same compound, the IC50 (curve of compound) was 232 nM and 94.2 nM and 805 nM.

For `Cn1ncnc1[C@H]1c2n[nH]c(=O)c3cc(F)cc(c23)N[C@@H]1c1ccc(F)cc1`, the viability, T/C (compound 0.000316 µM) was 96.9% and 93.8% and 114%, the viability, T/C (compound 0.001 µM) was 93.6% and 90.7% and 86.2% and the viability, T/C (compound 0.00316 µM) was 105% and 103% (2×). The viability, T/C (compound 0.01 µM) was 99.3% and 97.8% and 73.1%, the viability, T/C (compound 0.0316 µM) was 85.6% and 89.2% and 103% and the viability, T/C (compound 0.1 µM) was 90.2% and 97.5% and 88.9%. The IC50 (curve of compound) was greater than 100 nM.

`O=C(c1cc(Cc2n[nH]c(=O)c3ccccc23)ccc1F)N1CCN(C(=O)C2CC2)CC1` + Nc1ccc(C#CCN(C(=O)Cc2ncc(C(F)(F)F)cc2C(F)(F)F)c2ccc(F)cc2)nn1 was tested, and the IC50 [1] was greater than 10000 nM, the IC50 [2] was greater than 10000 nM and the IC50 [3] was greater than 10000 nM. The IC50 [4] was greater than 10000 nM, the IC50 [5] was greater than 10000 nM and the IC50 [6] was greater than 10000 nM. It also gave a viability, T/C [7] of 84.3%, a viability, T/C [8] of 109% and a viability, T/C [9] of 94.2%. It also gave a viability, T/C [10] of 81.7%, a viability, T/C (second compound 0.0316 µM, first compound 3.16 µM) of 97.1% and a viability, T/C (second compound 0.0316 µM, first compound 10 µM) of 88.1%. For the same compound, the viability, T/C [11] was 102%, the viability, T/C [12] was 104% and the viability, T/C [13] was 105%. The viability, T/C [14] was 84.9%, the viability, T/C (second compound 0.1 µM, first compound 3.16 µM) was 99.1% and the viability, T/C (second compound 0.1 µM, first compound 10 µM) was 106%. The viability, T/C [15] was 101%, the viability, T/C [16] was 81.2% and the viability, T/C [17] was 83.8%. For the same compound, the viability, T/C [18] was 94.7%, the viability, T/C (second compound 0.316 µM, first compound 3.16 µM) was 98.2% and the viability, T/C (second compound 0.316 µM, first compound 10 µM) was 83.4%. For the same compound, the viability, T/C [19] was 104%, the viability, T/C [20] was 98.4% and the viability, T/C [21] was 90.5%. It also gave a viability, T/C [22] of 94.8%, a viability, T/C (second compound 1 µM, first compound 3.16 µM) of 82.6% and a viability, T/C (second compound 1 µM, first compound 10 µM) of 87.5%. For the same compound, the viability, T/C [23] was 90.7%, the viability, T/C [24] was 106% and the viability, T/C [25] was 92.9%. It also gave a viability, T/C [26] of 95%, a viability, T/C (second compound 3.16 µM, first compound 3.16 µM) of 101% and a viability, T/C (second compound 3.16 µM, first compound 10 µM) of 90.9%. It also gave a viability, T/C [27] of 88.1%, a viability, T/C [28] of 93.9% and a viability, T/C [29] of 95.5%. The viability, T/C [30] was 89%, the viability, T/C (second compound 10 µM, first compound 3.16 µM) was 74% and the viability, T/C (second compound 10 µM, first compound 10 µM) was 83.9%.

`CCc1cc2c(N3CCc4c(cc(Cn5ccnc5)cc4-c4cn(C)nc4C(F)(F)F)C3=O)cc(C)nc2c(OC)n1` was tested, and the viability, T/C (compound 0.0316 µM) was 87% and 98.2% and 83.5%, the viability, T/C (compound 0.1 µM) was 84.3% and 88% and 82% and the viability, T/C (compound 0.316 µM) was 97.7% and 105% and 92.7%. The viability, T/C (compound 1 µM) was 61.2% and 84.8% and 84%, the viability, T/C (compound 3.16 µM) was 65% and 78.1% and 61.3% and the viability, T/C (compound 10 µM) was 54.8% and 53.6% and 58.1%. It also gave an IC50 (curve of compound) greater than 10000 nM.

— PubChem BioAssay AID1963836 (Molecular Pharmacology Branch, DTP, NCI, 2024)
